Activity calls are given as the source filed them.
How the values were obtained:
[1] = biological target: 5-hydroxytryptamine receptor 1A (Homo sapiens, UniProt P08908); format: functional
[2] = biological target: Neuropeptide Y receptor type 2 (Homo sapiens, UniProt P49146); format: functional, cell-based;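 further: HEK293 cells expressing the receptor and a CNG channel; stimulus was NPY near EC95 followed by isoproterenol to raise cAMP; antagonist potency measured as restoring cAMP signal that NPY suppresses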
Sequence of Neuropeptide Y receptor type 2 (P49146 whole entry): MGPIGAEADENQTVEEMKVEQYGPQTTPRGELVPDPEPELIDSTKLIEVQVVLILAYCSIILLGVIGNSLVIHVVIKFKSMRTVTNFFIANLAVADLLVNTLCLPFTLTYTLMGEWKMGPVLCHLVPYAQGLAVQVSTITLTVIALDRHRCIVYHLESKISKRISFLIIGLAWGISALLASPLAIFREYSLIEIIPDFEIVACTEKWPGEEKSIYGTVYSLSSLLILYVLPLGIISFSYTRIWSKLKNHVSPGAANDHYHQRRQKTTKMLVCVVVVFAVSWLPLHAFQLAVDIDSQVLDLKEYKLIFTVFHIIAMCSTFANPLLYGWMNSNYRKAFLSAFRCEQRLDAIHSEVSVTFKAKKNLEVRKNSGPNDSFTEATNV

[3] = biological target: Neuropeptide Y receptor type 1 (Homo sapiens, UniProt P25929); format: functional;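 further: HEK293 cells with a CNG channel challenged with NPY then isoproterenol; potency as antagonist that reverses NPY suppression of cAMP signal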
Sequence of Neuropeptide Y receptor type 1 (P25929 whole entry): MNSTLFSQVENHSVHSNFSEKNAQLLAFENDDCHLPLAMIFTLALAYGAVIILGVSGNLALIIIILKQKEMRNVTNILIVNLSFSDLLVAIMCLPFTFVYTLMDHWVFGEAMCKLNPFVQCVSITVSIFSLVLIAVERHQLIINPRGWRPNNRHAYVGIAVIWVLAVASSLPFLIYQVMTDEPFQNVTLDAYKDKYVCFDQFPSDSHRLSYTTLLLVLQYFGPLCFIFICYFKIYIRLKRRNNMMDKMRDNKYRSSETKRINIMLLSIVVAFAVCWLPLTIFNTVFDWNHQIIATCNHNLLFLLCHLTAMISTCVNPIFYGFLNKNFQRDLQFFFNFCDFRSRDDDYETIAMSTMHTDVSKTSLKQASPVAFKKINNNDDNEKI

[4] = biological target: T1, Protein skinhead-1 (Caenorhabditis elegans, UniProt P34707); format: functional
T1 sequence (P34707 whole entry): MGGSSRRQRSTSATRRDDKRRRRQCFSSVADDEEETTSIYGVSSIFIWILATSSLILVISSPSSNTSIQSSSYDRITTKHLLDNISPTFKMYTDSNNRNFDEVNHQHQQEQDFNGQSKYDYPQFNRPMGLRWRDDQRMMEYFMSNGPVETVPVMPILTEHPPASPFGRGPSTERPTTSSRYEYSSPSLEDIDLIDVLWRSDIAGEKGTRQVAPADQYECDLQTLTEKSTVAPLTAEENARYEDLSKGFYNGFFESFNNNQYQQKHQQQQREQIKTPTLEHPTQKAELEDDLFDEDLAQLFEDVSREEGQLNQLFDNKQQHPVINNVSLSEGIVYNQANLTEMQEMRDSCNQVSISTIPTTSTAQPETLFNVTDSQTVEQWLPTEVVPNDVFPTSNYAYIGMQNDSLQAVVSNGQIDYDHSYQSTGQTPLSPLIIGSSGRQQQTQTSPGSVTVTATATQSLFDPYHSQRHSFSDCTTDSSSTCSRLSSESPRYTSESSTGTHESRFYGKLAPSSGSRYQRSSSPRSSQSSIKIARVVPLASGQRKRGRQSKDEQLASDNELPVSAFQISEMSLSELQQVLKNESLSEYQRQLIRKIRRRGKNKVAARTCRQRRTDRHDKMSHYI

[5] = test system: INS1; test: beta cell apoptosis inhibitors, cytokine rescue, dose response, luminescence, retest (AID 449756); format: functional, cell-based; conditions: Rattus norvegicus;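 further: cell death triggered by IL-1 beta plus TNF-alpha plus IFN-gamma mixture; protective hits raise ATP signal compared with cytokine alone wells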
[6] = Luminescent dose response cell-based high throughput screening assay for inhibitors of the Janus kinase 2 mutant JAK2V617F. [Related pubchem assays: 1446 (Primary screen.), 1521 (Confirmation assay.), 1486 (Counter screen.)]; format: functional
[7] = biological target: Diphosphomevalonate decarboxylase (Streptococcus pneumoniae serotype 2 (strain D39 / NCTC 7466), UniProt Q9FD53); test: S. pneumoniae DPM-DC inhibition retest, confirmation, biochemical, cuvette format, coupled NADH fluorescence (AID 1028); format: functional
Sequence of Diphosphomevalonate decarboxylase (Q9FD53 whole entry): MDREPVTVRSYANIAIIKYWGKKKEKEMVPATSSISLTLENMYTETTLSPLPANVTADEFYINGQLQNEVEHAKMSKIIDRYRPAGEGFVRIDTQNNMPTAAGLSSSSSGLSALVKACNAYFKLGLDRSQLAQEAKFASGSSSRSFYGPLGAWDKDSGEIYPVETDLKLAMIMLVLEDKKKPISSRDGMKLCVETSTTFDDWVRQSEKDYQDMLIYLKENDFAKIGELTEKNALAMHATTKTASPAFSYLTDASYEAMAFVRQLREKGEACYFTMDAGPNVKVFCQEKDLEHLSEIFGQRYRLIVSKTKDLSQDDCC

[8] = test system: Vero; test: host cell cytotoxicity of antiviral hits, dose response, cytotoxicity control for West Nile virus antiviral project, secondary assay (AID 1650); format: functional; conditions: Chlorocebus sabaeus
[9] = cytotoxicity in HEK-293T cells, dose response, cytotoxicity control for TCR NF-kB inhibitor project, luminescence, T-cell screen hits (AID 489026); format: functional, cell-based;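 further: cells exposed to compound about 14 hours before the viability readout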
[10] = biological target: Estrogen receptor (Homo sapiens, UniProt P03372);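 further: potency for inhibiting coactivator peptide recruitment to the receptor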
Sequence of Estrogen receptor (P03372 whole entry): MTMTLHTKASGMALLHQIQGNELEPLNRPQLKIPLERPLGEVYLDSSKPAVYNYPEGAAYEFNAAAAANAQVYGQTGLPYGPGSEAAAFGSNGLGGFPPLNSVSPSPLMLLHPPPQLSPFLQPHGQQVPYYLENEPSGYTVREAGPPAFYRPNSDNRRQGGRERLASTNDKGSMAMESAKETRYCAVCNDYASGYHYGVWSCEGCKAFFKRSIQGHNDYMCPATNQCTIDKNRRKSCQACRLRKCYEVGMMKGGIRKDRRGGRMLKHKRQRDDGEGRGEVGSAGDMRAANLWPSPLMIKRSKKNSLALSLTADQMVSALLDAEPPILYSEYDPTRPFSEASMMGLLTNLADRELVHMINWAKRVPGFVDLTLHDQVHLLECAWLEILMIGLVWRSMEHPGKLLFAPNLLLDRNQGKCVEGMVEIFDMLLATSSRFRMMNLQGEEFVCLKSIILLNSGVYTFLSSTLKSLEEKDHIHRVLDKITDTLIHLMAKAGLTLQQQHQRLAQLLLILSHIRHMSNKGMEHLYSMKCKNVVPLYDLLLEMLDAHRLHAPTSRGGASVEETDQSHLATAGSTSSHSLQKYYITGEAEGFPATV

[11] = biological target: T2, Estrogen receptor beta (Homo sapiens, UniProt Q92731);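 further: recombinant ER-beta bound to coactivator SRC1 peptide in presence of estradiol agonist; inhibitors block coactivator peptide binding and lower the FRET signal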
T2 sequence (Q92731 whole entry): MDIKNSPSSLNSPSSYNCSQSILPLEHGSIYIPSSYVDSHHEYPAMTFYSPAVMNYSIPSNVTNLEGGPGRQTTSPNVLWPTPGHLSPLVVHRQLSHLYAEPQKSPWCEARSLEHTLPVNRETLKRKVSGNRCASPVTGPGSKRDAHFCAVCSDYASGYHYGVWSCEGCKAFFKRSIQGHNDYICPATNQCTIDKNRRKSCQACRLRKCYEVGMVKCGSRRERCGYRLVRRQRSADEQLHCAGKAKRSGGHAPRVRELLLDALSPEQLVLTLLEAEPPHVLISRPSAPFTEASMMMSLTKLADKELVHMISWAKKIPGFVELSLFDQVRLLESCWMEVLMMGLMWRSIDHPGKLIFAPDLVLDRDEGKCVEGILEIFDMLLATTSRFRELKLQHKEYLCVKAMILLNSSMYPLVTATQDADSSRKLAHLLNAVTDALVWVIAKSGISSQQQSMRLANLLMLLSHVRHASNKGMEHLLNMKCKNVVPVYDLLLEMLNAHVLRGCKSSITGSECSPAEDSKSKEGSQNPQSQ

[12] = biological target: T2, Estrogen receptor beta; test: ERβ–SRC-3 coactivator interaction inhibitors, confirmation, orthogonal assay, biochemical, ELISA, streptavidin-HRP readout (AID 1060)

Sequence of 5-hydroxytryptamine receptor 1A (P08908 whole entry): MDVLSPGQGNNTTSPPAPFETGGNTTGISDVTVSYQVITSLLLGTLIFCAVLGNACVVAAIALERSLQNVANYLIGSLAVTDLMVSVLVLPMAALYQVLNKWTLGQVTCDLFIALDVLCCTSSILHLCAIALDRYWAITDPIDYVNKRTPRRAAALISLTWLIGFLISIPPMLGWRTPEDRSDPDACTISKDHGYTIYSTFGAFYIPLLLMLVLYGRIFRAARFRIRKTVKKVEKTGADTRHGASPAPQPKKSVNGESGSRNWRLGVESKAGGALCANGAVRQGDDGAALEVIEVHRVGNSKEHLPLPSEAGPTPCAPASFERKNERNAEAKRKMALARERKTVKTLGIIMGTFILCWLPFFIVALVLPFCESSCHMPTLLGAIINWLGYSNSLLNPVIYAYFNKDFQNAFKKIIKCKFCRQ

SMILES: CN(C)CCOC(=O)c1cn(Cc2ccccc2)c2ccccc12
- EC50 [1]: > 50 µM (not active)

SMILES: O=C(CSc1nc2ccccc2o1)c1ccc2c(c1)OCCO2
- IC50 [2]: 18.3 µM (not active)
- IC50 [3]: 11.3 µM (not active)
- IC50 [4]: > 100 µM (inactive)

SMILES: CCCOc1ccc(C(=O)C(CN2CCOCC2)c2ccccc2)cc1 (configuration not stated)
- AC50 [5]: > 60 µM (inactive)
- IC50 [6]: 0.909 µM (active)

SMILES: CCCNC(=O)c1ccc(-n2sc3ccccc3c2=O)cc1
- IC50 [7]: 7.48 µM (active)

SMILES: CCOc1ccc2c(c1)OC(c1ccc(OC)cc1)(C(F)(F)F)NC2=O (configuration not stated)
- CC50 [8]: 13.7 µM (active)
- IC50 [9]: > 80 µM (inactive)

SMILES: Cc1occc1C(=O)Nc1ccccc1NC(=O)c1ccoc1C
- IC50 [10]: > 50 µM (not active)
- IC50 [11]: > 50 µM (not active)
- IC50 [12]: 0.155 µM (not active)

From ChEMBL document CHEMBL1201862, “PubChem BioAssay data set” (2004)
